This is an account of results in patent US8912121B2, “Herbicidal compositions comprising 4-amino-3-chloro-5-fluoro-6-(4-chloro-2-fluoro-3-methoxyphenyl)pyridine-2-carboxylic acid or a derivative thereof and certain PS II inhibitors” (Dow Agrosciences LLC, priority 2012, dated 2014).

The assay concerns CYPRO (Cyperus rotundus, purple nutsedge). Briefly: In-water applied mixtures, transplanted paddy rice, greenhouse. The format is in vivo, Cyperus rotundus L. The following applies: 19 DAA. The method, then: Weed seeds or nutlets of the desired test plant species were planted in puddled soil (mud) prepared by mixing a shredded, non-sterilized mineral soil (50.5 percent silt, 25.5 percent clay, and 24 percent sand, with a pH of about 7.6 and an organic matter content of about 2.9 percent) and water at a 1:1 volumetric ratio. The prepared mud was dispensed in 365 mL aliquots into 16-ounce (oz.) non-perforated plastic pots with a surface area of 86.59 square centimeters (cm^2) leaving a headspace of 3 centimeters (cm) in each pot Mud was allowed to dry overnight prior to planting or transplanting. Rice seeds were planted in Sun Gro MetroMix® 306 planting mixture, which typically has a pH of 6.0 to 6.8 and an organic matter content of about 30 percent, in plastic plug trays. Seedlings at the second or third leaf stage of growth were transplanted into 840 mL of mud contained in 32-oz. non-perforated plastic pots with a surface area of 86.59 cm^2 4 days prior to herbicide application. The paddy was created by filling the headspace of the pots with 2.5 to 3 cm of water. When required to ensure good germination and healthy plants, a fungicide treatment and/or other chemical or physical treatment was applied. The plants were grown for 4-22 days in a greenhouse with an approximate 14 h photoperiod which was maintained at about 29° C during the day and 26° C. during the night. Nutrients were added as Osmocote® (19:6:12, N:P:K+ minor nutrients) at 2 g per 16-oz. pot and 4 g per 32-oz. pot. Water was added on a regular basis to maintain the paddy flood, and supplemental lighting was provided with overhead metal halide 1000-Watt lamps as necessary. The plants were employed for testing when they reached the first through fourth true leaf stage.
Treatments consisted of the acid or esters of 4-amino-3-chloro-5-fluoro-6-(4-chloro-2-fluoro-3-methoxy-phenyl)pyridine-2-carboxylic acid (compound A) each formulated as an SC (suspension concentrate) and various herbicidal components alone and in combination. Forms of compound A were applied on an acid equivalent basis.
Other herbicidal components were applied on an active ingredient basis and included photosystem II (PSII)-inhibits propanil formulated as […] bentazon-sodium formulated as Basagran®, and simetryne (technical grade material).
Treatment requirements for each compound or herbicidal component were calculated based upon the rates being tested, the concentration of active ingredient or acid equivalent in the formulation, an application volume of 2 mL per component per pot, and an application area of 86.59 cm^2 per pot.
For formulated compounds, a measured amount was placed in an individual 100 or 200 mL glass vial and was dissolved in a volume of 1.25% (v/v) Agri-Dex® crop oil concentrate to obtain application solutions.
For technical grade compounds, a weighed amount was placed in an individual 100 to 200 mL glass vial and was dissolved in a volume of acetone to obtain concentrated stock solutions. […] The concentrated stock solutions obtained were diluted with an equivalent volume of an aqueous mixture containing 2.5% (v/v) crop oil concentrate so that the final application solutions contained 1.25% (v/v) crop oil concentrate.
Applications were made by injecting with a pipetter appropriate amounts of the application solutions, individually and sequentially, into the aqueous layer of the paddy. Control plants were treated in the same manner with the solvent blank. Applications were made so that all treated plant material received the same concentrations of acetone and crop oil concentrate.
The treated plants and control plants were placed in a greenhouse as described above and water was added as needed to maintain a paddy flood. After approximately 3 weeks the condition of the test plants as compared with that of the untreated plants was determined visually and scored on a scale of 0 to 100 percent where 0 corresponds to no injury or growth inhibition and 100 corresponds to complete kill. […]

As to `COc1c(Cl)ccc(-c2nc(C(=O)OCc3ccccc3)c(Cl)c(N)c2F)c1F` [Compound A Benzyl Ester, benzyl ester of 4-amino-3-chloro-5-fluoro-6-(4-chloro-2-fluoro-3-methoxy-phenyl)pyridine-2-carboxylic acid], the “Visual Weed Control (%) Obs” value (8 g ae/ha) was determined as 50%, the “Visual Weed Control (%) Obs” value (16 g ae/ha) was found to be 85% and the “Visual Weed Control (%) Obs” value (32 g ae/ha) came to 90%.
